Measured values from ChEMBL document CHEMBL4420071, “Method for treating skin with retinoids and retinoid boosters” (2013).

Key:
Homo sapiens [1] = species: Homo sapiens; assay: Inhibition of transglutaminase in human keratinocytes assessed as mean transglutaminase activity level at 3.73 10^-4M in presence of 10 uM retinal relative to retinal alone; format: cell-based; parameters: scale not given: the % may be the effect or the level left
Homo sapiens [2] = species: Homo sapiens; assay: Inhibition of transglutaminase in human keratinocytes assessed as mean transglutaminase activity level at 1.23 10^-5M in presence of 10 uM retinal relative to retinal alone; format: cell-based; parameters: scale not given: the % may be the effect or the level left
Homo sapiens [3] = species: Homo sapiens; assay: Inhibition of transglutaminase in human keratinocytes assessed as mean transglutaminase activity level at 4.1 10^-5M in presence of 10 uM retinal relative to retinal alone; format: cell-based; parameters: scale not given: the % may be the effect or the level left
Homo sapiens [4] = species: Homo sapiens; assay: Inhibition of transglutaminase in human keratinocytes assessed as mean transglutaminase activity level at 8.2 10^-6M in presence of 10 uM retinal relative to retinal alone; format: cell-based; parameters: scale not given: the % may be the effect or the level left
Homo sapiens [5] = species: Homo sapiens; assay: Inhibition of transglutaminase in human keratinocytes assessed as mean transglutaminase activity level at 1.65 10^-7M in presence of 10 uM retinal relative to retinal alone; format: cell-based; parameters: scale not given: the % may be the effect or the level left
Homo sapiens [6] = species: Homo sapiens; assay: Inhibition of transglutaminase in human keratinocytes assessed as mean transglutaminase activity level at 3.29 10^-7M in presence of 10 uM retinal relative to retinal alone; format: cell-based; parameters: scale not given: the % may be the effect or the level left
Homo sapiens [7] = species: Homo sapiens; assay: Inhibition of transglutaminase in human keratinocytes assessed as mean transglutaminase activity level at 1.4 10^-2M in presence of 10 uM retinal relative to retinal alone; format: cell-based; parameters: scale not given: the % may be the effect or the level left
Homo sapiens [8] = species: Homo sapiens; assay: Inhibition of transglutaminase in human keratinocytes assessed as mean transglutaminase activity level at 4.8 10^-3M in presence of 10 uM retinal relative to retinal alone; format: cell-based; parameters: scale not given: the % may be the effect or the level left
Homo sapiens [9] = species: Homo sapiens; assay: Inhibition of transglutaminase in human keratinocytes assessed as mean transglutaminase activity level at 1 10^-3M in presence of 10 uM retinal relative to retinal alone; format: cell-based; parameters: scale not given: the % may be the effect or the level left
Homo sapiens [10] = species: Homo sapiens
Description: Inhibition of transglutaminase in human keratinocytes in presence of 10 uM retinal relative to retinal alone

[11] = biological target: T1, Cellular retinoic acid-binding protein 2 (Homo sapiens) (UniProt P29373); assay: Inhibition of radioactive all-trans retinoic acid binding to CRABP2 (unknown origin) expressed in Escherichia coli BLR(DE3)pLys incubated for 1 hr by scintillation counting assay; details: concentration not given here
T1 sequence (whole entry): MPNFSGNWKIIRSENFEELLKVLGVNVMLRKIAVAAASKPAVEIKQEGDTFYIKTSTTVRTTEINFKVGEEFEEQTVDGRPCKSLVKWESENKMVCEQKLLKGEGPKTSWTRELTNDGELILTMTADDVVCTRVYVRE

Homo sapiens [12] = species: Homo sapiens; assay: Inhibition of transglutaminase in human keratinocytes assessed as mean transglutaminase activity level at 5.0 10^-8M in presence of 10 uM retinal relative to retinal alone; format: cell-based; parameters: scale not given: the % may be the effect or the level left
Homo sapiens [13] = species: Homo sapiens; assay: Inhibition of transglutaminase in human keratinocytes assessed as mean transglutaminase activity level at 1.1 10^-8M in presence of 10 uM retinal relative to retinal alone; format: cell-based; parameters: scale not given: the % may be the effect or the level left
Homo sapiens [14] = species: Homo sapiens; assay: Inhibition of transglutaminase in human keratinocytes assessed as mean transglutaminase activity level at 2 10^-8M in presence of 10 uM retinal relative to retinal alone; format: cell-based; parameters: scale not given: the % may be the effect or the level left
Homo sapiens [15] = species: Homo sapiens; assay: Inhibition of transglutaminase in human keratinocytes assessed as mean transglutaminase activity level at 4.3 10^-9M in presence of 10 uM retinal relative to retinal alone; format: cell-based; parameters: scale not given: the % may be the effect or the level left
Homo sapiens [16] = species: Homo sapiens; assay: Inhibition of transglutaminase in human keratinocytes assessed as mean transglutaminase activity level at 9.1 10^-4M in presence of 10 uM retinal relative to retinal alone; format: cell-based; parameters: scale not given: the % may be the effect or the level left
Homo sapiens [17] = species: Homo sapiens; assay: Inhibition of transglutaminase in human keratinocytes assessed as mean transglutaminase activity level at 1.23 10^-4M in presence of 10 uM retinal relative to retinal alone; format: cell-based; parameters: scale not given: the % may be the effect or the level left
Homo sapiens [18] = species: Homo sapiens; assay: Inhibition of transglutaminase in human keratinocytes assessed as mean transglutaminase activity level at 3.1 10^-5M in presence of 10 uM retinal relative to retinal alone; format: cell-based; parameters: scale not given: the % may be the effect or the level left
Homo sapiens [19] = species: Homo sapiens; assay: Inhibition of transglutaminase in human keratinocytes assessed as mean transglutaminase activity level at 1.2 10^-5M in presence of 10 uM retinal relative to retinal alone; format: cell-based; parameters: scale not given: the % may be the effect or the level left
Homo sapiens [20] = species: Homo sapiens; assay: Inhibition of transglutaminase in human keratinocytes assessed as mean transglutaminase activity level at 3.65 10^-6M in presence of 10 uM retinal relative to retinal alone; format: cell-based; parameters: scale not given: the % may be the effect or the level left
Homo sapiens [21] = species: Homo sapiens; assay: Inhibition of transglutaminase in human keratinocytes assessed as mean transglutaminase activity level at 1.29 10^-6M in presence of 10 uM retinal relative to retinal alone; format: cell-based; parameters: scale not given: the % may be the effect or the level left
Homo sapiens [22] = species: Homo sapiens; assay: Inhibition of transglutaminase in human keratinocytes assessed as mean transglutaminase activity level at 2 10^-7M in presence of 10 uM retinal relative to retinal alone; format: cell-based; parameters: scale not given: the % may be the effect or the level left
Homo sapiens [23] = species: Homo sapiens; assay: Inhibition of transglutaminase in human keratinocytes assessed as mean transglutaminase activity level at 5.1 10^-8M in presence of 10 uM retinal relative to retinal alone; format: cell-based; parameters: scale not given: the % may be the effect or the level left
Homo sapiens [24] = species: Homo sapiens; assay: Inhibition of transglutaminase in human keratinocytes assessed as mean transglutaminase activity level at 1 10^-8M in presence of 10 uM retinal relative to retinal alone; format: cell-based; parameters: scale not given: the % may be the effect or the level left

COc1cc(C=O)ccc1O
Activity (Homo sapiens [1]): 101% | Activity (Homo sapiens [2]): 82% | Activity (Homo sapiens [3]): 98% | Activity (Homo sapiens [4]): 109% | Activity (Homo sapiens [5]): 80% | Activity (Homo sapiens [6]): 93% | Activity (Homo sapiens [7]): 21.5% | Activity (Homo sapiens [8]): 93.8% | Activity (Homo sapiens [9]): 124% | IC20 (Homo sapiens [10]): 8.47 ×10⁻³ M

CCCCCCC(O)CCCCCCCCCCC(=O)O (stereo unspecified)
inhibition [11]: > 50% | Activity (Homo sapiens [2]): -5.2% | Activity (Homo sapiens [3]): 32.4% | Activity (Homo sapiens [4]): 97.6% | Activity (Homo sapiens [5]): 90.2% | Activity (Homo sapiens [6]): 82% | Activity (Homo sapiens [12]): 81% | Activity (Homo sapiens [13]): 98% | Activity (Homo sapiens [14]): 118% | Activity (Homo sapiens [15]): 71% | IC20 (Homo sapiens [10]): 1.45 ×10⁻⁵ M

CCCCCCCCCCCCCCCCC(O)C(=O)O (stereo unspecified)
Activity (Homo sapiens [1]): 69.3% | Activity (Homo sapiens [16]): 46.6% | Activity (Homo sapiens [17]): 51% | Activity (Homo sapiens [18]): 96% | Activity (Homo sapiens [19]): 105% | Activity (Homo sapiens [20]): 63% | Activity (Homo sapiens [21]): 80% | Activity (Homo sapiens [22]): 142% | Activity (Homo sapiens [23]): 64% | Activity (Homo sapiens [24]): 58%
